Where “and” joins values, the source holds several entries; their conditions need not be identical. Identical values can stand only once. Like-named read-outs stand apart in the source and are kept apart here.
Key:
[1] = system: STZ-diabetic rats; test: Single subcutaneous administration to STZ-diabetic rats (blood glucose, daily weight gain)
Procedure: Diabetes was induced by a single intravenous injection of a freshly prepared solution of streptozotocin (55 mg/kg body weight) in 0.1M citrate buffer (pH 4.5) according to Meyerovitch et al., 1987.
Blood glucose levels and daily weight gains were followed over a period of seven days.
Group C (n=5) received the vehicle only (2.0 ml of 20% DMSO). Blood glucose levels were determined daily.

[2] = Solubility and appearance in aqueous buffer (pH 7.4)
[3] = type: physicochemical
Procedure: (i.e. at physiological pH and body temperature). At the indicated time points aliquots were withdrawn for determining the biological potency relative to native insulin. Biological activities were evaluated by Insulin receptor tyrosine kinase activation (a cell free assay as described in Biological Procedures above, section (iv)) and by stimulation of lipogenesis in intact rat adipocytes as described in Biological Procedures, […].

[4] = target: insulin receptor tyrosine kinase (Rattus norvegicus, UniProt P15127); test: Insulin receptor tyrosine kinase activity, [poly(Glu4Tyr)] phosphorylating assay (cell-free); details: for Biological potency (%): of native insulin potency, before incubation, [poly(Glu4Tyr)] phosphorylating assay; for Biological potency following incubation (2 days, 37° C., pH 8.5): after 2 days
Procedure: Briefly, the liver was homogenized in the presence of proteinase inhibitors, solubilized with 1% Triton X-100, and centrifuged. The supernatant was allowed to pass through a wheat-germ agglutinin (WGA)-agarose column (Sigma). Adsorbed insulin receptor portion was eluted with 0.3M N-acetyl-D-glucose amine in 50 mM HEPES buffer, pH 7.4, containing 0.1% Triton X-100, 10% glycerol, and 0.15M NaCl.
(iv) Receptor Tyrosine Kinase Activity Measurement
In this assay insulin activates its own receptor to phosphorylate a random copolymer containing L-glutamic acid and L-tyrosine at 4:1 molar ratio [Poly(Glu4Tyr)]SEQ ID NO:1. The standard enzyme assay mixture (final volume 60 μl in 50 mM Hepes, pH 7.4-0.1% Triton X-100) contained WGA purified insulin receptor (5μg protein), 20 mM MgCl2, 2 mM MnCl2, 100 μM ATP and varying concentrations (from 1 ng/ml to 10 mg/ml) of insulin or insulin derivative. Following a 30 min preincubation at 22° C., the reaction was initiated by adding Poly(Glu4Tyr) SEQ ID NO:1 (final concentration 0.7 mg/ml), it proceeded for 20 min at 22° C. and was terminated by adding EDTA (20 mM). Phosphotyrosine content in PolyGlu4Tyr was quantitated by a radio-immunoassay procedure using specific monoclonal antibodies to phosphotyrosine (final dilution 1: 100,000) and ^125I-BSA-phosphotyrosine conjugate.

[5] = system: chymotrypsin and trypsin; details: pH 7.4
Procedure: Chymotrypsin and trypsin (0.5% w/w, of each) was then added. At the indicated time points aliquots were withdrawn and subjected to analytical HPLC procedure.

[6] = system: intact rat adipocytes; type: cell-based; details: for Activity following incubation at pH 8.5, 37° C. (%), 9 hrs: 9 hrs at pH 8.5, 37° C.; for Activity following incubation at pH 8.5, 37° C. (%), 20 hrs: 20 hrs at pH 8.5, 37° C.; for Activity following incubation at pH 8.5, 37° C. (%), 45 hrs: 45 hrs at pH 8.5, 37° C.
Procedure: (iii) Lipogenesis (Incorporation of Labeled Glucose into the Lipids of Intact Adipocytes) Rat adipocytes were prepared essentially by the method of Rodbell, 1964. The fat pads of male Wistar rats were cut into small pieces with scissors and suspended in 3 ml of KRB buffer containing NaCl, 110 mM; NaHCO3, 25 mM; Kcl, 5 mM; […] CaCl2, 1.3 mM; […] Five milliliters of buffer was then added, and the cells were passed through a mesh screen. The cells were then allowed to stand for several minutes in a 15 ml plastic test tube at room temperature, floating, and the buffer underneath was removed. This procedure (suspension, floating, and removal of buffer underneath) was repeated three times. […] Lipogenesis was terminated by adding toluene-based scintillation fluid (1.0 ml per vial) and the radioactivity in extracted lipids was counted (Moody et al., 1974).

[7] = system: normal rats; test: Single intraperitoneal administration to normal rats, blood glucose levels; type: in vivo; details: single i.p. injection, 3 mg/rat
Procedure: This assay reflects the post-subcutaneous long-acting feature of insulin (or insulin derivatives) within the circulation. Normal rats received a single intraperitoneal injection of native insulin, NPH-insulin and (Fmoc)2-insulin (3 mg/rat), and their blood glucose levels were monitored over a period of three days.
Blood glucose levels were followed for two days.

[8] = not given; remark: listed apart in the source
[9] = system: hGH receptor; test: Displacement of iodinated hGH (receptor binding assay)
Procedure: Incubation of Fmoc-hGH at pH 8.5 (37° C.) for about 6 days or at pH 10.5 (37° C.) for four days yielded fully active, native hGH, as judged by HPLC analysis and by receptor binding assays.

[10] = Conversion of Fmoc-hGH to native hGH upon incubation (analytical HPLC); type: physicochemical; details: pH 8.5, 37° C.
Procedure: Conversion of Fmoc-hGH to native hGH was evaluated by the increase in peak area corresponding to native hGH.

[11] = system: Staphylococcus aureus; details: relative to cephalexin control
Procedure: At the indicated time points, aliquots were withdrawn and analyzed for their potency to arrest growth of Staphylococcus aureus. Bacterial growth was then evaluated by increased turbidity measured spectroscopically at 700 nm.

[12] = system: E. coli; type: cell-based; details: for IC50: read-out: Concentration inhibiting 50% of bacterial growth; for Antimicrobial potency (%): relative to PMXB control
Procedure: At the indicated time points aliquots were withdrawn and analyzed for their potencies to arrest growth of E. coli, and bacterial growth was then evaluated by measuring turbidity at 700 nm.

[13] = cited from earlier work

insulin receptor tyrosine kinase, sequence (P15127 27-759 limits assumed): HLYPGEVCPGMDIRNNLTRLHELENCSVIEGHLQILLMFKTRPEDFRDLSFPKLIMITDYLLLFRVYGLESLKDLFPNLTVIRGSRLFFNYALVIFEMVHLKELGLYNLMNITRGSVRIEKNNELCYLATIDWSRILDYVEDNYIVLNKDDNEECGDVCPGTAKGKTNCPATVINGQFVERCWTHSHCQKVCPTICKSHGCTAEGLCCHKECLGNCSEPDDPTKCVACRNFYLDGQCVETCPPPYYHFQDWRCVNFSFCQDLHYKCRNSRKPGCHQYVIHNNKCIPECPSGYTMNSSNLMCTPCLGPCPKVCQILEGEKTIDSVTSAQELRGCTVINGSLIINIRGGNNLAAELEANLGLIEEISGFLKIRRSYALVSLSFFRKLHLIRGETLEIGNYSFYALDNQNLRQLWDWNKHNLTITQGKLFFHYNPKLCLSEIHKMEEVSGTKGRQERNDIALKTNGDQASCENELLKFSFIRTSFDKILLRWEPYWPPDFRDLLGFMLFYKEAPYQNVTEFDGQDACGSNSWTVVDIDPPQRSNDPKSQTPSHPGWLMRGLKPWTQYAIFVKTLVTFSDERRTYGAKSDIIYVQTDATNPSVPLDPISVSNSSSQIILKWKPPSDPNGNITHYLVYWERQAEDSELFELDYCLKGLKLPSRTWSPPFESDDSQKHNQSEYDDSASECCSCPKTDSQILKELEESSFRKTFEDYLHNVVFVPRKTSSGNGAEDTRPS
insulin receptor tyrosine kinase, sequence (P15127 764-1383 partner limits assumed): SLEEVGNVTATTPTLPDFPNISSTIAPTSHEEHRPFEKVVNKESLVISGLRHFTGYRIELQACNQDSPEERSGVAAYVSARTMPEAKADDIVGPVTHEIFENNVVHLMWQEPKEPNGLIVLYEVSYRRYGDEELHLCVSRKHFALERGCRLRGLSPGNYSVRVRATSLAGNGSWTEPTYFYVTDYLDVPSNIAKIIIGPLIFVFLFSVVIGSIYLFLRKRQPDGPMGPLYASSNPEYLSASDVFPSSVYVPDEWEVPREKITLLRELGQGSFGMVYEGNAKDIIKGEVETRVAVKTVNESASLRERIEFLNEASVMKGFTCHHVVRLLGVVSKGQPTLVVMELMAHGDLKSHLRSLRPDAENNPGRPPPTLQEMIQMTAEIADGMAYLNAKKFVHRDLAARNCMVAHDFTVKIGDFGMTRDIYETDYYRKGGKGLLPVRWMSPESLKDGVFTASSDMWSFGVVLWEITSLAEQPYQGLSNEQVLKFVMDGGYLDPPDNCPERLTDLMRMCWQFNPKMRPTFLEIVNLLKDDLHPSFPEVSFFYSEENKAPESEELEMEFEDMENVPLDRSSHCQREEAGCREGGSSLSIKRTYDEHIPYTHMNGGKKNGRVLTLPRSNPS

Gly^A1, Phe^B1, Lys^B29-N-(Fmoc)3-insulin
Solubility in aqueous buffer (pH 7.4, mg/ml): ˜0.2 mg/ml
Delayed onset of antidiabetic action ([1]; STZ rats, single s.c. 1 mg): approximately two days
Duration of antidiabetic action ([1]; STZ rats, single s.c. 1 mg): four days
Daily weight gain ([1]; STZ rats, single s.c. 1 mg, followed seven days): 1.43±0.14 g/rat/day
Circulating glucose level lower than in native insulin group ([1]; single s.c. 1 mg, day two up to day six): 90 to 110 mg/dL
Appearance in aqueous buffer (pH 7.4) [2]: very cloudy
Lag period of activation ([3]; pH 7.4, 37° C.): six day lag period
Biological potency (%) ([4]; listed as N-(Fmoc)3-insulin Gly^A1, Lys^B29, Phe^B1): <1%
Biological potency (%) ([4]; listed as tri-N-Fmoc-insulin): < 1%
Resistance to proteolysis [5]: highly resistant to proteolysis

Gly^A1, Lys^B29-N-(Fmoc)2-insulin
Solubility in aqueous buffer (pH 7.4, mg/ml): ˜2 mg/ml
Activity following incubation at pH 8.5, 37° C. (%), 9 hrs [6]: 10%
Activity following incubation at pH 8.5, 37° C. (%), 20 hrs [6]: 20%
Activity following incubation at pH 8.5, 37° C. (%), 45 hrs [6]: 97%
Appearance in aqueous buffer (pH 7.4) [2]: cloudy
Biological potency following incubation (2 days, 37° C., pH 8.5) [4]: 93
Biological potency (%) [4]: 2 ± 1%

(Sulfmoc)2-insulin: insulin carrying two (2-sulfo)Fmoc groups on amino groups, water soluble
Period of hypoglycemia / reduced blood glucose [7]: 24 h
Recovery from hypoglycemia, t½ [7]: 14 h
Time to full reversion / hydrolysis to the native hormone, pH 7.4 ([8]; 37° C., pH 7.4): 10 days
t½ of reversion, pH 7.4 ([8]; buffer, pH 7.4): 6 days
t½ of reversion, pH 8.5 ([8]; buffer, pH 8.5): 12-15 hours
Increase in rate of hydrolysis versus Fmoc moiety ([8]; sulfonic acid group at position 2): 2-3 fold
Biologically active (%) ([6]; before incubation, assay not given): 0.5%
t½ of return to fully-active native insulin (increase in biological potency) ([6]; pH 8.5): 4-6 hours

Fmoc-hGH: human growth hormone modified with Fmoc-OSu
Ability to displace iodinated hormone (%) ([9]; after 1 day, pH 10.5, 37° C.): 25%
Ability to displace iodinated hormone (%) ([9]; after 4 days, pH 10.5, 37° C.): 100%
Ability to displace iodinated hormone (%) ([9]; no treatment): 15%
Incubation time yielding fully active, native hGH, pH 10.5 ([9]; pH 10.5, 37° C.): four days
Conversion to hGH (%) ([10]; 1 day): 23%
Conversion to hGH (%) ([10]; 2 days): 62%
Conversion to hGH (%) ([10]; 6 days): 100%
Incubation time yielding fully active, native hGH, pH 8.5 [10]: about 6 days

Gly^A1-N-(Fmoc)1-insulin [Gly^A1-N-Fmoc-insulin]
Solubility in aqueous buffer (pH 7.4, mg/ml): ˜3 mg/ml
Activity following incubation at pH 8.5, 37° C. (%), 9 hrs [6]: 50%
Activity following incubation at pH 8.5, 37° C. (%), 20 hrs [6]: 100%
Appearance in aqueous buffer (pH 7.4) [2]: nearly clear
Biological potency (%) [4]: 40 ± 2%

CC1=C(C(=O)O)N2C(=O)[C@@H](NC(=O)[C@H](N)c3ccccc3)[C@H]2SC1 [native cephalexin, 7-(D-α-aminophenylacetamido)desacetoxycephalosporanic acid, reference compound]
Antimicrobial potency (%) ([11]; after 1 day at pH 7.4, 37° C.): 100%
Antimicrobial potency (%) ([11]; after 3 days at pH 7.4, 37° C.): 100%
Antimicrobial potency (%) ([11]; after 6 days at pH 7.4, 37° C.): 100%
Antimicrobial potency (%) ([11]; no incubation): 100%

hGH: native human growth hormone (Biotechnology General)
Ability to displace iodinated hormone (%) ([9]; no treatment): 100%
Stability under the conditions applied to Fmoc-hGH ([9]; pH 10.5, 37° C., 4 days): ^(1)Displacement of iodinated hGH was carried out according to Gertler et al., 1984. Native hGH was fully stable under the conditions applied to Fmoc-hGH (pH 10.5, 37° C., 4 days).

Lys^B29-N-(Fmoc)1-insulin
Solubility in aqueous buffer (pH 7.4, mg/ml): ˜3 mg/ml
Appearance in aqueous buffer (pH 7.4) [2]: nearly clear
t½ of activation (half maximal activation) ([3]; buffer, pH 7.4): 120 h
Biological potency following incubation (2 days, 37° C., pH 8.5) [4]: 94
Biological potency (%) [4]: 78 ± 4%

di-9-(fluorenylmethoxycarbonyl)polymyxin B [(Fmoc)2-PMBX]
IC50 ([12]; 3 d, 37° C., pH 7.4): 227 nM and 350 nM
IC50 ([12]; 3 d, 37° C., pH 8.5): 125 nM
Antimicrobial potency (%) ([12]; 3 d, 37° C., pH 8.5): 80%
IC50 ([12]; 6 d, 37° C., pH 8.5): 200 nM
Antimicrobial potency (%) ([12]; 6 d, 37° C., pH 8.5): 100%
t½ of hydrolysis back to active PMXB, pH 7.4 ([12]; buffer, pH 7.4): ~1 days
t½ of hydrolysis back to active PMXB, pH 8.5 ([12]; buffer, pH 8.5): ~3 days
IC50 ([12]; no treatment): 5000 nM
Antimicrobial potency (%) ([12]; no treatment): ~1%

Insulin lispro: human insulin analog with the sequence at B28 and B29 reversed
Potency versus human insulin ([13]; in vivo): equipotent to human insulin
Absorption from subcutaneous injection sites ([13]; versus human insulin): absorbed more quickly

Phe^B1-N-(Fmoc)1-insulin
Solubility in aqueous buffer (pH 7.4, mg/ml): ˜3 mg/ml
Appearance in aqueous buffer (pH 7.4) [2]: nearly clear
Biological potency (%) [4]: 76 ± 4%

Polymyxin-B [native PMXB, reference compound]
IC50 ([12]; 3 d, 37° C., pH 7.4): 55 nM
Antimicrobial potency (%) ([12]; 3 d, 37° C., pH 7.4): 100%
IC50 ([12]; 3 d, 37° C., pH 8.5): 100 nM
Antimicrobial potency (%) ([12]; 3 d, 37° C., pH 8.5): 100%
IC50 ([12]; 6 d, 37° C., pH 7.4): 228 nM
Antimicrobial potency (%) ([12]; 6 d, 37° C., pH 7.4): 100%
IC50 ([12]; 6 d, 37° C., pH 8.5): 200 nM
Antimicrobial potency (%) ([12]; 6 d, 37° C., pH 8.5): 100%
IC50 ([12]; no treatment): 50 nM
Antimicrobial potency (%) ([12]; no treatment): 100%

Phe^B1, Lys^B29-N-(Fmoc)2-insulin
Solubility in aqueous buffer (pH 7.4, mg/ml): ˜2 mg/ml
Period of normoglycemia ([1]; STZ rats, single s.c. 3 mg/rat): 4 days
Daily weight gain gram/rat (over the first three days) ([1]; STZ rats, single s.c. 3 mg/rat, first three days): 11.5 ± 1.3 gram/rat
Effectiveness in lowering blood glucose levels ([1]; STZ rats, single s.c. administration): as effective as the commercially available (insoluble) long-acting preparation
Period of hypoglycemia / reduced blood glucose [7]: about 48 hours
Recovery from hypoglycemia, t½ [7]: 26 h
Activity following incubation at pH 8.5, 37° C. (%), 9 hrs [6]: 10%
Activity following incubation at pH 8.5, 37° C. (%), 20 hrs [6]: 20%
Activity following incubation at pH 8.5, 37° C. (%), 45 hrs [6]: 98%
Appearance in aqueous buffer (pH 7.4) [2]: cloudy
Lag period of activation ([3]; pH 7.4, 37° C.): not seen
Start of conversion to the native hormone after incubation ([3]; pH 7.4, 37° C.): starts shortly (within hours) after incubation
Biological potency (%) ([4]; Lys^B29-N-(Fmoc)2 insulin): 9%
Biological potency (%) ([4]; listed as N-(Fmoc)2-insulin Phe^B1, Lys^B29): 9 ± 2%

Gly^A1, Phe^B1-N-(Fmoc)2-insulin
Solubility in aqueous buffer (pH 7.4, mg/ml): ˜2 mg/ml
Activity following incubation at pH 8.5, 37° C. (%), 9 hrs [6]: 18%
Activity following incubation at pH 8.5, 37° C. (%), 20 hrs [6]: 40%
Activity following incubation at pH 8.5, 37° C. (%), 45 hrs [6]: 100%
Appearance in aqueous buffer (pH 7.4) [2]: cloudy
Biological potency following incubation (2 days, 37° C., pH 8.5) [4]: 97
Biological potency (%) [4]: 3 ± 1%

— patent US6504005B1, “Long-acting drugs and pharmaceutical compositions comprising them” (Yeda Research and Development Co. Ltd., priority 1996, dated 2003)
